Where no end group is shown, it is not given here.
Key:
C. xerosis = test: MIC, modified two-fold microtitre broth dilution; format: cell-based, Corynebacterium xerosis
From the text: (§1) Bacterial strains for antimicrobial activity testing included Escherichia coli UB1005 and its antibiotic supersusceptible derivative DC2 (Richmond et al., Antimicrob. Agents Chemother. 10:215, 1976), Pseudomonas aeruginosa K799 and its antibiotic-supersusceptible derivative Z61 (Angus et al., Antimicrob. Agents Chemother. 21:299, 1982), Salmonella typhimurium 14028s and its defensin-supersusceptible derivative MS7953s (Fields et al., Science, 243:1059, 1989), Staphylococcus aureus ATCC25923 and a clinical isolate Staphylococcus aureus SAP1007. Other Gram-positive bacterial strains include Staphylococcus epidermidis (clinical isolate) and Enterococcus faecalis ATCC29212, Listeria monocytogenes, Corynebacterium xerosis, Streptococcus pneumoniae ATTC49619, Streptococcus pyogenes ATTC19615, Streptococcus mitis.
(§2) The minimal inhibitory concentration (MIC) of peptides was determined by a modified two-fold microtitre broth dilution method modified from that of Steinberg et al (Steinberg, Antimicrob. Agents Chemother. 41:1738, 1997). Using the classical method (Amsterdam, Antibiotics in Laboratory Medicine (Lorian, V., ed) pp. 72-78, 1991), higher concentrations of peptides tend to precipitate in the LB broth, thus the concentrations of peptides in the sequential wells are not accurate. Also the peptides stick to the most readily available (tissue-culture treated polystyrene) 96-well microtitre plates. Therefore the 2× series of dilutions was performed in Eppendoff tubes (polypropylene) before mixing with LB broth. Serial of two fold dilutions of peptides ranging from 640 μg/ml to 1.25 μg/ml were made in 0.2% BSA, 0.01% acetic acid buffer in the Eppendoff tubes. Ten μl of each concentration was added to each corresponding well of a 96-well microtiter plate (polypropylene cluster; Costar Corporation, Cambridge, Mass.). Bacteria were grown overnight and diluted 10-5 into fresh LB broth or Todd Hewitt broth for Streptococcus. LB medium contained 10 g/1l tryptone and 5 g/yeast extract, with no salt. Todd Hewitt contained 500 g/l beef heart infusion, 20 g/l bacto neopeptone, 2 g/l bacto dextrose, 2 g/l sodium chloride, 0.4 g/l disodium phosphate, 2.5 g/l sodium carbonate. One hundred […] containing about 10^4-10^5 CFU/ml of tested bacteria was added to each well. The plate was incubated at 37° C. overnight. The MIC was taken as the concentration at which greater than 90% of growth inhibition was observed.

Strep. pyogenes = test: MIC, modified two-fold microtitre broth dilution; format: cell-based, Streptococcus pyogenes; settings: for MIC Strep. pyogeness: Table IID, linear (Group 2): reduced forms of the peptides, Bac (Oxidized) as comparator
From the text: as §1, §2

Staph. aureus = test: MIC, modified two-fold microtitre broth dilution; format: cell-based, Staphylococcus aureus
From the text: as §1, §2

Listeria monocytogenes = test: MIC, modified two-fold microtitre broth dilution; format: cell-based
From the text: as §1, §2

Strep. mitis = test: MIC, modified two-fold microtitre broth dilution; format: cell-based, Streptococcus mitis; settings: for MIC Strep. mitis: Table IID, linear (Group 2): reduced forms of the peptides, Bac (Oxidized) as comparator
From the text: as §1, §2

E.facaelis = test: MIC, modified two-fold microtitre broth dilution; format: cell-based, Enterococcus faecalis
From the text: as §1, §2

Staph. epidermidis = test: MIC, modified two-fold microtitre broth dilution; format: cell-based, Staphylococcus epidermidis
From the text: as §1, §2

S.typhimurium = test: MIC, modified two-fold microtitre broth dilution; format: cell-based, Salmonella typhimurium
From the text: as §1, §2

Strep. pneumoniae = test: MIC, modified two-fold microtitre broth dilution; format: cell-based, Streptococcus pneumoniae; settings: for MIC Strep. pneumonia: Table IID, linear (Group 2): reduced forms of the peptides, Bac (Oxidized) as comparator; for MIC S. pneumonia: Table IIIB, non-linear positive-charge modification derivatives; for MIC S. pneumoniae: Table IVB, non-linear hydrophobicity modification derivatives
From the text: as §1, §2

P.aeruginosa = test: MIC, modified two-fold microtitre broth dilution; format: cell-based, Pseudomonas aeruginosa
From the text: as §1, §2

E.coli UB1005 = test: MIC, modified two-fold microtitre broth dilution; format: cell-based, Escherichia coli
From the text: as §1, §2

[1] = Table IID, linear (Group 2): reduced forms of the peptides, Bac (Oxidized) as comparator
[2] = Table IIIB, non-linear positive-charge modification derivatives
[3] = Table IIC, linear (Group 2): reduced forms of the peptides, Bac (Oxidized) as comparator
[4] = table IIA, non-linear positive-charge modification derivatives
[5] = Table IVB, non-linear hydrophobicity modification derivatives
[6] = Table IVA, non-linear hydrophobicity modification derivatives

| Substance | MIC C. xerosis (C. xerosis; [1]) | MIC C. xerosis (C. xerosis; [2]) | MIC Strep. pyogeness (Strep. pyogenes) | MIC Strep. pyogenes (Strep. pyogenes; [2]) | MIC Staph. aureus (Staph. aureus; [1]) | MIC Staph. aureus (Staph. aureus; [2]) | MIC Listeria (Listeria monocytogenes; [1]) | MIC Listeria (Listeria monocytogenes; [2]) | MIC Strep. mitis (Strep. mitis) | MIC S. mitis (Strep. mitis; [2]) | MIC E.facaelis (E.facaelis; [1]) | MIC E.facaelis (E.facaelis; [2]) | MIC Staph. epidermidis (Staph. epidermidis; [1]) | MIC Staph. epidermidis (Staph. epidermidis; [2]) | MIC S. typhimurium (S.typhimurium; [3]) | MIC Strep. pneumonia (Strep. pneumoniae) | MIC P. aeruginosa (P.aeruginosa; [3]) | Minimal Agglutinating Concentration, Oxidized Form (Human Red Blood Cells) | Minimal Agglutinating Concentration, Reduced Form (Human Red Blood Cells) | MIC E.coli UB1005 (E.coli UB1005; [3]) | also measured |
| --- | --- | --- | --- | --- | --- | --- | --- | --- | --- | --- | --- | --- | --- | --- | --- | --- | --- | --- | --- | --- | --- |
| KKCPIVVIRVCK [Bac 3K, P, tested oxidized and reduced] | 4 mg/L | 16 mg/L | 64 mg/L | > 64 mg/L | > 64 mg/L | > 64 mg/L | 4 mg/L | 8 mg/L | 0.25 mg/L | 2 mg/L | > 64 mg/L | > 64 mg/L | > 64 mg/L | > 64 mg/L | > 64 mg/L | > 64 mg/L | > 64 mg/L | > 64 µg/mL | 64 µg/mL | > 64 mg/L | MIC S. typhimurium (S.typhimurium; [4]): 32 mg/L; MIC S. pneumonia (Strep. pneumoniae): > 64 mg/L; MIC P. aeruginosa (P.aeruginosa; [4]): > 64 mg/L; MIC E.coli UB1005 (E.coli UB1005; [4]): 16 mg/L |
| RLCRIVWVIRVCR [Bac W, tested oxidized and reduced] | 1 mg/L |  | 16 mg/L |  | > 64 mg/L |  | 2 mg/L |  | 1 mg/L |  | 32 mg/L |  | 32 mg/L |  | 64 mg/L | 32 mg/L | > 64 mg/L | 32 µg/mL | 4 µg/mL | > 64 mg/L | MIC C. xerosis (C. xerosis; [5]): 1 mg/L; MIC Strep. pyogenes (Strep. pyogenes; [5]): 2 mg/L; MIC Staph. aureus (Staph. aureus; [5]): 4 mg/L; MIC Listeria (Listeria monocytogenes; [5]): 0.5 mg/L; MIC S. mitis (Strep. mitis; [5]): 1 mg/L; MIC E.facaelis (E.facaelis; [5]): 8 mg/L; MIC Staph. epidermidis (Staph. epidermidis; [5]): 2 mg/L; MIC S. typhimurium (S.typhimurium; [6]): 4 mg/L; MIC S. pneumoniae (Strep. pneumoniae): 16 mg/L; MIC P. aeruginosa (P.aeruginosa; [6]): 4 mg/L; MIC E.coli UB1005 (E.coli UB1005; [6]): 8 mg/L |
| RLCRIVPVIRVCR [Bac P, tested oxidized and reduced] | 2 mg/L |  | 32 mg/L |  | > 64 mg/L |  | 4 mg/L |  | 2 mg/L |  | 32 mg/L |  | 16 mg/L |  | 64 mg/L | > 64 mg/L | 32 mg/L | 64 µg/mL | 64 µg/mL | 16 mg/L | MIC C. xerosis (C. xerosis; [5]): 8 mg/L; MIC Strep. pyogenes (Strep. pyogenes; [5]): 64 mg/L; MIC Staph. aureus (Staph. aureus; [5]): 64 mg/L; MIC Listeria (Listeria monocytogenes; [5]): 2 mg/L; MIC S. mitis (Strep. mitis; [5]): 4 mg/L; MIC E.facaelis (E.facaelis; [5]): > 64 mg/L; MIC Staph. epidermidis (Staph. epidermidis; [5]): 64 mg/L; MIC S. typhimurium (S.typhimurium; [6]): > 64 mg/L; MIC S. pneumoniae (Strep. pneumoniae): > 64 mg/L; MIC P. aeruginosa (P.aeruginosa; [6]): > 64 mg/L; MIC E.coli UB1005 (E.coli UB1005; [6]): 32 mg/L |
| RRCPIVVIRVCR-NH2 (cysteine pairing not given here) [Bac R, P-NH2] |  | 2 mg/L |  | 16 mg/L |  | 32 to 64 mg/L |  | 1 mg/L |  | 2 mg/L |  | > 64 mg/L |  | 32 mg/L |  |  |  | > 64 µg/mL |  |  | MIC S. typhimurium (S.typhimurium; [4]): 16 mg/L; MIC S. pneumonia (Strep. pneumoniae): > 64 mg/L; MIC P. aeruginosa (P.aeruginosa; [4]): 16 mg/L; MIC E.coli UB1005 (E.coli UB1005; [4]): 2 mg/L |

Source: patent publication US6172185A, “Antimicrobial cationic peptide derivatives of bactenecin” (priority 1998, dated 2001)
